# Columns and labels:
# cancer patients = conditions: in vivo
# Method: In one example, carboplaton and taxol are cancer drugs for treating cancer, including ovarian cancer.
# For this protocol, the MR device settings may be, for example, amplitude=about 0.017 μG to about 0.3 μG, frequency=about 0.3 Hz to about 9.6 Hz, waveform=sine or square, and MR treatment duration=about 80 minutes.
# [1] = system: diabetic peripheral neuropathy patients; test: Case report: diabetic neuropathy drugs combined with MR treatment; type: in vivo, human; conditions: diabetic neuropathy in both feet, taking the drugs; resonated four times for one hour each
# Text: In one subject, a person suffered with diabetic neuropathy in both feet. […] The subject was taking the drugs Actos, Metaformin, and Lisinopril. The subject was resonated four times for one hour each time. […] As of fifteen months after the last treatment session, the sensation remained. Also, the subjects from Example 5 reported improvements with respect to symptoms relating to diabetic neuropathy (e.g., lack of sensation and pain).
# In providing MR treatment to a subject with diabetic neuropathy, an amplitude of about 0.455 μG to about 0.53 μG, with a frequency of about 12.7 Hz to about 14.84 Hz may be used.
# Parkinson's patient [2] = test: Average off time of Levodopa, baseline versus MR treatment; type: in vivo, human; conditions: for % Improved: MR result vs baseline
# Text: In the example of Table 1, the MR analysis algorithm 166 has performed a query, for example, on the terms “Indication=Parkinson's” in combination with “Substance=Levodopa,” in order to produce one or more records of one or more subjects of one or more treatment events. Subsequently, the selected magnetic resonance treatment regimen may be transmitted from the MR system server 160 to the client computer 120. The operator 138 then may carry out the treatment regimen upon the subject 150 according to the recommended treatment regimen. For example, the recommended magnetic resonance treatment regimen may specify a certain number and frequency of treatment events, wherein for each treatment an amount of a certain substance is administered to the body of the subject, and the subject is then resonated with electromagnetic energy of a certain flux density and certain frequency for a certain amount of time. Subsequent to each magnetic resonance treatment, all related data is updated locally at the client computer 120 and/or remotely at the MR system server 160. Using the example of a subject 150 that has Parkinson's disease, a side effect of certain Parkinson's drugs may be involuntary movements called dyskinesias. Therefore, an example of results that may be logged in treatment data 137 may be observations as to the amount of time from beginning of treatment to the onset of dyskinesias, which is an indication as to the amount of time that it has taken for the substance 152 to enter the subject's body systems. Other observable effects of the MR treatment after the substance 152 that has been administered to the subject's body systems may be a reduction in off time of the drug, a reduction in tremors, and a reduction in joint stiffness.
# Parkinson's patient [3] = test: Onset of dyskinesias after Levodopa, with and without magnetic resonance (MR) treatment; type: in vivo, human; conditions: for % Improved: MR result vs baseline; for MR Result Onset of Dyskinesias: MR whole body immersion (7′)
# Method: Subsequently, the selected magnetic resonance treatment regimen may be transmitted from the MR system server 160 to the client computer 120. The operator 138 then may carry out the treatment regimen upon the subject 150 according to the recommended treatment regimen. For example, the recommended magnetic resonance treatment regimen may specify a certain number and frequency of treatment events, wherein for each treatment an amount of a certain substance is administered to the body of the subject, and the subject is then resonated with electromagnetic energy of a certain flux density and certain frequency for a certain amount of time. Subsequent to each magnetic resonance treatment, all related data is updated locally at the client computer 120 and/or remotely at the MR system server 160.
# fibromyalgia patients = test: Case reports: fibromyalgia, drugs combined with MR treatment; type: in vivo, human; conditions: same subject; thirteen MR treatments within a two-month period
# Method: In one example, a person experienced fibromyalgia for a number of years. The subject also experienced insomnia, restless legs, and chronic fatigue. The subject took the drug Naproxen (Aleve). The subject received seven consecutive days of 1 to 1.5 hour treatments.
# Their primary complaint was back pain. […] The subject received thirteen treatments within a two-month period. […] Approximately two months after completing their first series of treatment, they began a second regimen of ten treatments within a two-month period.
# In a further example, a person at least fifty years old suffered from fibromyalgia for a number of years. […] The subject received daily (when possible) treatments for approximately one year.
# osteoarthritis patients = conditions: for results of continuing treatment / stiffness in hand, before treatment / pain in thumb, before treatment: person, taking the drugs; for results of continuing treatment: back pain (degenerative disk disease, sciatica), resonated approx. three times per week for more than one year; for stiffness in hand, before treatment / pain in thumb, before treatment: osteoarthritis, before MR; for stiffness in hand, before treatment: scale zero (feels great) to ten (feels terrible)
# Text: In one example, a person suffered from back pain due to degenerative disk disease in their low back and sciatica. […] The subject was resonated approximately three times per week for more than one year.
# In another example, a person experienced arthritis pain in a number of joints, including their hips, hands, and shoulders. The subject also suffered from sciatica in their hips and legs. The subject was taking Celebrex. The subject was resonated at least three times per week for one to two hours per session.
# In a further example, a person experienced osteoarthritis pain and stiffness in their hands and finger joints. […] The subject was resonated twice for one-half hour per treatment. The subject was asked to rate their pain on a scale of zero (feels great) to ten (feels terrible) before and after treatment.
# Alternatively, an amplitude of about 0.01 μG to about 0.46 μG, with a frequency of about 0.2799 Hz to about 12.8765 Hz may be used.
# [4] = system: migraine and headache patients; test: Case reports: migraine and headache drugs combined with MR treatment; type: in vivo, human
# Method: The subject was resonated ten times for 1 to 1.5 hours per treatment over a one-month period.
# In another example, a person experienced pain associated with migraines. […] The subject received two one-hour treatments three months apart.
# In a further example, a person experienced pain associated with severe headaches. The subject took Aspirin to treat the pain. The subject received one treatment for one hour.
# subject with back pain = test: Case reports: low back pain, drugs combined with MR treatment; type: in vivo, human; conditions: person, taking the drugs; for decrease in pain level and stiffness level: four one-hour MR treatments over eleven days; for decrease in stiffness level: one MR treatment of one hour
# Text: In one example, a person experienced pain and stiffness associated with their low back. The subject was taking Aspirin and Ibuprofen. Over the course of ten days, the subject received three treatments. The result was a decrease in pain level of 50-100%.
# In another example, a person experienced pain and stiffness associated with their low back. The subject was taking Aspirin and Ibuprofen. Over the course of eleven days, the subject received four treatments, each lasting one hour. The result was a decrease in pain level and stiffness level of 75%.
# In another example, a person experienced pain and stiffness associated with their low back. The subject was taking Aspirin and Ibuprofen. The subject received one treatment, lasting one hour. The result was a decrease in pain level of 60-70% and stiffness level of 90%.
# In providing MR treatment to a subject with back pain, an amplitude of about 0.01 μG to about 0.457 μG, with a frequency of about 0.2799 Hz to about 12.8 Hz may be used.
# injured patients = test: Case reports: injuries, drugs combined with MR treatment; type: in vivo, human; conditions: person, taking the drugs; for elimination of pain and stiffness: injured right knee (old Meniscus tear), 3 MR treatments of 1 hour over 5 days
# Text: In another example, a person experienced pain and stiffness associated with a shoulder injury. The subject was taking Aspirin and Ibuprofin. The subject received two one-hour treatments three days apart. The result was a decrease in pain level of 50% and a decrease in stiffness of 50%.
# In a further example, a person experienced pain and stiffness associated with an injured knee. The subject was taking Aspirin and Ibuprofin. Over the course of 5 days, the subject received 3 treatments, each lasting 1.5 hours. The result was a decrease in pain level of 50-100% and a decrease in stiffness of 50%.
# In a further example, a person experienced pain and stiffness associated with an injured right knee that was the result of an old Meniscus tear injury. The subject was taking Aspirin and Ibuprofin. Over the course of 5 days, the subject received 3 treatments, each lasting 1 hour. The result was a 100% elimination of their pain an stiffness.
# In another example, a person experienced pain and stiffness associated with an injured left knee. The subject was taking Aspirin and Ibuprofin. Over the course of three days, the subject received two treatments, each lasting one hour. The result was a decrease in pain level of 75% and a decrease in stiffness of 50%.
# In providing MR treatment to a subject with pain and/or one or more injuries, an amplitude of about 0.01 μG to about 0.5 μG, with a frequency of about 0.2799 Hz to about 14.0 Hz may be used.
# [5] = injured knee, 3 MR treatments of 1.5 hours over 5 days
# [6] = injured left knee, two one-hour MR treatments over three days
# [7] = shoulder injury, two one-hour MR treatments three days apart
# [8] = same subject, after being resonated twice for one-half hour per treatment, scale zero to ten
compound,measurement,setting,value
N.N.O=C([O-])C1(C(=O)[O-])CCC1.[Pt+2] [carboplaton],reported effects after taking the cancer drugs,cancer patients,increased lethargy and decreased energy and motivation
CCc1ccc(CCOc2ccc(CC3SC(=O)NC3=O)cc2)nc1 (centres unmarked) [Actos],result of treatment on sensation in feet,[1],"sensation returned for touch, texture, and temperature"
N[C@@H](Cc1ccc(O)c(O)c1)C(=O)O [Levodopa],% Improved,"Parkinson's patient [2]; Record # 4752: average off time, Levodopa 50 mg",17%
same,Baseline Average off time,"Parkinson's patient [2]; Record # 4752: subject W-65, Parkinson's, Levodopa 50 mg ingested",Average off time 6 hours
same,MR Result Average off time,"Parkinson's patient [2]; Record # 4752: subject W-65, Levodopa 50 mg ingested, MR partial immersion (4′), 0.0697 microgauss, 1.9 Hz, sinusoidal, 90 mins",Average off time 5 hours
same,% Improved,"Parkinson's patient [2]; Record # 5942: average off time, Levodopa 25 mg",33%
same,Baseline Average off time,"Parkinson's patient [2]; Record # 5942: subject AA-35, Parkinson's, Levodopa 25 mg ingested",Average off time 6 hours
same,MR Result Average off time,"Parkinson's patient [2]; Record # 5942: subject AA-35, Levodopa 25 mg ingested, MR partial immersion (22″), 0.0717 microgauss, 1.8 Hz, triangle, 70 mins",Average off time 4 hours
same,time from consuming Levodopa to dyskinesias,"Parkinson's patient [3]; Example 1, Parkinson's patient, no magnetic resonance",about 38 minutes
same,time from consuming Levodopa to dyskinesias,"Parkinson's patient [3]; Example 1, same Parkinson's patient, substantially the same dosage, then receives magnetic resonance",about 22 minutes
same,absorption rate and efficacy of Levodopa on resonating the patient,Parkinson's patient [3]; Parkinson's patient resonated after consuming Levodopa,improved the absorption rate of Levodopa
same,% Improved,"Parkinson's patient [3]; Record # 1265: onset of dyskinesias, Levodopa 25 mg",42%
same,Baseline Onset of Dyskinesias,"Parkinson's patient [3]; Record # 1265: subject A-84, Parkinson's, Levodopa 25 mg ingested",Onset of Dyskinesias 38 mins
same,MR Result Onset of Dyskinesias,"Parkinson's patient [3]; Record # 1265: subject A-84, Levodopa 25 mg ingested, 0.0667 microgauss, 2.0 Hz, square, 60 mins",Onset of Dyskinesias 22 mins
same,% Improved,"Parkinson's patient [3]; Record # 7508: onset of dyskinesias, Levodopa 50 mg",37%
same,Baseline Onset of Dyskinesias,"Parkinson's patient [3]; Record # 7508: subject W-65, Parkinson's, Levodopa 50 mg ingested",Onset of Dyskinesias 43 mins
same,MR Result Onset of Dyskinesias,"Parkinson's patient [3]; Record # 7508: subject W-65, Levodopa 50 mg ingested, 0.0697 microgauss, 1.9 Hz, sinusoidal, 80 mins",Onset of Dyskinesias 27 mins
NCCCC[C@H](N[C@@H](CCc1ccccc1)C(=O)O)C(=O)N1CCC[C@H]1C(=O)O [Lisinopril],"pain level after treatment, first series",fibromyalgia patients,0.5
same,result of treatment on sensation in feet,[1],"sensation returned for touch, texture, and temperature"
CN(C)C(=N)NC(=N)N [Metaformin],result of treatment on sensation in feet,[1],"sensation returned for touch, texture, and temperature"
CC(C)Cc1ccc(C(C)C(=O)O)cc1 (centres unmarked) [Ibuprofin],results of continuing treatment,osteoarthritis patients,"significantly less pain, an improved range of motion, and improved sleep"
same,"stiffness in hand, before treatment",osteoarthritis patients,two
same,"pain in thumb, before treatment",osteoarthritis patients; scale zero to ten,three
same,results on migraines,"[4]; person with migraines taking the drugs, resonated ten times, 1 to 1.5 hours, over one month",decreased frequency and duration of migraines
same,pain level before being resonated,"[4]; person with migraines taking the drugs, scale of zero to ten",nine
same,reduction in pain level,"[4]; person with migraines taking the drugs, two one-hour MR treatments three months apart",50%
same,pain level after treatment,"[4]; same subject, after ten MR treatments over one month, scale of zero to ten",two
same,decrease in pain level and stiffness level,subject with back pain,75%
same,decrease in stiffness level,subject with back pain,90%
same,decrease in stiffness,injured patients; [5],50%
same,decrease in pain level,injured patients; [6],75%
same,decrease in stiffness,injured patients; [6],50%
same,elimination of pain and stiffness,injured patients,100%
same,decrease in pain level,injured patients; [7],50%
same,decrease in stiffness,injured patients; [7],50%
CC(=O)Oc1ccccc1C(=O)O [Aspirin],results of continuing treatment,osteoarthritis patients,"significantly less pain, an improved range of motion, and improved sleep"
same,"stiffness in hand, before treatment",osteoarthritis patients,two
same,"pain in thumb, before treatment",osteoarthritis patients; scale zero to ten,three
same,"pain in thumb, after treatment",osteoarthritis patients; [8],zero
same,"stiffness in hand, after treatment",osteoarthritis patients; [8],zero
same,pain before treatment,"[4]; person, severe headaches, taking Aspirin, before MR",6.5
same,pain after treatment,"[4]; same subject, after one MR treatment for one hour",zero
same,decrease in pain level and stiffness level,subject with back pain,75%
same,decrease in stiffness level,subject with back pain,90%
same,decrease in stiffness,injured patients; [5],50%
same,decrease in pain level,injured patients; [6],75%
same,decrease in stiffness,injured patients; [6],50%
same,elimination of pain and stiffness,injured patients,100%
same,decrease in pain level,injured patients; [7],50%
same,decrease in stiffness,injured patients; [7],50%

# Source: patent publication US8421457B2, “Methods and systems for magnetically resonating both a subject and a substance administered to the subject” (Applied Magnetics, LLC, priority 2008, dated 2013)
